Legend:
[1] = target: JH2 domain of human Tyk2 (Homo sapiens (Human), UniProt P29597); assay: JH2 Biochemical Assay (TR-FRET probe displacement); type: binding
[2] = target: Tyk2 (Homo sapiens (Human), UniProt P29597); assay: pSTAT4 Cell Assay (MSD, NK92 cells); type: cell-based; settings: MSD
[3] = TR-FRET probe displacement, JH2 domain of human Tyk2
[4] = JH2 domain of human Tyk2, TR-FRET probe displacement

Tyk2, sequence (P29597 whole entry, the tested form may be a part): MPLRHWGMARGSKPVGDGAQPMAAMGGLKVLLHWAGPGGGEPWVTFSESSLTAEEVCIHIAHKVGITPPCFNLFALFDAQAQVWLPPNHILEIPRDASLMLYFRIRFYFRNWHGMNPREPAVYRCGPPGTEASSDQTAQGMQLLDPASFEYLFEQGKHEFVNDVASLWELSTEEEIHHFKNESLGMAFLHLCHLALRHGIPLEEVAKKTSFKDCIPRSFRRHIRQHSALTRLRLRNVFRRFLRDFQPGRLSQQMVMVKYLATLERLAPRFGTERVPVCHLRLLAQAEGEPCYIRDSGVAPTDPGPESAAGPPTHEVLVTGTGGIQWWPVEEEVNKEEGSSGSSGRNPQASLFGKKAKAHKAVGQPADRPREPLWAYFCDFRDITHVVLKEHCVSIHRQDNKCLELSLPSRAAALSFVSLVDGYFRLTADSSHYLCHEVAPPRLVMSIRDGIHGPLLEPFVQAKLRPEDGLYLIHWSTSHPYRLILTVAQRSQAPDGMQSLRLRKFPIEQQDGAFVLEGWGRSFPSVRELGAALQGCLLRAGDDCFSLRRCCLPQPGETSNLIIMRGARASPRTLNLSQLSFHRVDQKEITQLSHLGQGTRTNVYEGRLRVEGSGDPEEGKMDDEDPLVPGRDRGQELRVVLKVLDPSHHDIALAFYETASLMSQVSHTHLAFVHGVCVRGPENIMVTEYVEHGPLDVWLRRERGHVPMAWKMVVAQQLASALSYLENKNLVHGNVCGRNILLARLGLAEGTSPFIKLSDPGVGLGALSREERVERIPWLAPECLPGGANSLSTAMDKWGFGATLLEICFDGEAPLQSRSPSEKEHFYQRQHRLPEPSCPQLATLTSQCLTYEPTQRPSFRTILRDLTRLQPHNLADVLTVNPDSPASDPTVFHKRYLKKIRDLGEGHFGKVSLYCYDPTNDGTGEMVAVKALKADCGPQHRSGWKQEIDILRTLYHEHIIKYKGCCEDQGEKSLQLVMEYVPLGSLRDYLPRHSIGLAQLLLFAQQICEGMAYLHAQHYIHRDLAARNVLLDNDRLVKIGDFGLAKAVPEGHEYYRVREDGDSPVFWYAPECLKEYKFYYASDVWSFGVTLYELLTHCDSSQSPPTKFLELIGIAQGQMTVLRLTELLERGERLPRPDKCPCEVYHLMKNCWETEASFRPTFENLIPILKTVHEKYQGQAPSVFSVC
JH2 domain of human Tyk2, sequence (P29597 575-876): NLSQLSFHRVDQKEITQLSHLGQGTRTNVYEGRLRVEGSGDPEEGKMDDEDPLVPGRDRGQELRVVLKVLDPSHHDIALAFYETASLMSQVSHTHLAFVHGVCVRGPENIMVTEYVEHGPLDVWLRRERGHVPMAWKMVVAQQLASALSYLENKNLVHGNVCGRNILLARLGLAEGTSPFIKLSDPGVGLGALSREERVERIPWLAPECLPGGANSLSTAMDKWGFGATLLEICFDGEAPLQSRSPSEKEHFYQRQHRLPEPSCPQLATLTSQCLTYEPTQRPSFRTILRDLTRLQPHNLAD

SMILES	IC50 [1, 3] [nM]	IC50 [2] [nM]	IC50 [1, 4] [nM]
COCCOc1cnc(NC(C)=O)cc1Nc1cc(-c2cnn(C(C)C)c2)nc(C(C)(F)F)n1 [Example 366, N-(4-((2-(1,1-difluoroethyl)-6-(1-isopropyl-1H-pyrazol-4-yl)pyrimidin-4-yl)amino)-5-(2-methoxyethoxy)pyridin-2-yl)acetamide]	≤ 10	≤ 10	
CCOc1cnc(NC(C)=O)cc1Nc1cc(-c2cncc(C)c2)nc(C(C)(F)F)n1 [Example 367, N-(4-((2-(1,1-difluoroethyl)-6-(5-methylpyridin-3-yl)pyrimidin-4-yl)amino)-5-ethoxypyridin-2-yl)acetamide]	≤ 10	10 to 100	
CCOc1cnc(NC(C)=O)cc1Nc1cc(-c2ccc(CC)nc2)nc(C(C)(F)F)n1 [Example 368, N-(4-((2-(1,1-difluoroethyl)-6-(6-ethylpyridin-3-yl)pyrimidin-4-yl)amino)-5-ethoxypyridin-2-yl)acetamide]	≤ 10	≤ 10	
CCOc1cnc(NC(C)=O)cc1Nc1cc(-c2ccc(OC)nc2)nc(C(C)(F)F)n1 [Example 369, N-(4-((2-(1,1-difluoroethyl)-6-(6-methoxypyridin-3-yl)pyrimidin-4-yl)amino)-5-ethoxypyridin-2-yl)acetamide]	≤ 10	10 to 100	
CCOc1cnc(NC(C)=O)cc1Nc1cc(-c2cncc(OC)c2)nc(C(C)(F)F)n1 [Example 370, N-(4-((2-(1,1-difluoroethyl)-6-(5-methoxypyridin-3-yl)pyrimidin-4-yl)amino)-5-ethoxypyridin-2-yl)acetamide]		10 to 100	≤ 10
CCOc1cnc(NC(C)=O)cc1Nc1cc(-c2cnn(CC(C)C)c2)nc(C(C)(F)F)n1 [Example 371, N-(4-((2-(1,1-difluoroethyl)-6-(1-isobutyl-1H-pyrazol-4-yl)pyrimidin-4-yl)amino)-5-ethoxypyridin-2-yl)acetamide]		≤ 10	≤ 10
CCOc1cnc(NC(C)=O)cc1Nc1cc(Cl)nc(C(C)(F)F)n1 [Example 372, N-(4-((6-chloro-2-(1,1-difluoroethyl)pyrimidin-4-yl)amino)-5-ethoxypyridin-2-yl)acetamide]		10 to 100	≤ 10
COc1cnc(NC(C)=O)cc1Nc1cc(-c2ccncc2F)nc(C(C)(F)F)n1 [Example 373, N-(4-((2-(1,1-difluoroethyl)-6-(3-fluoropyridin-4-yl)pyrimidin-4-yl)amino)-5-methoxypyridin-2-yl)acetamide]		10 to 100	≤ 10
COc1cnc(NC(C)=O)cc1Nc1cc(-c2cnn(C3CCC3)c2)nc(C(C)(F)F)n1 [Example 374, N-(4-((6-(1-cyclobutyl-1H-pyrazol-4-yl)-2-(1,1-difluoroethyl)pyrimidin-4-yl)amino)-5-methoxypyridin-2-yl)acetamide]		100 to 1000	10 to 100
COc1cnc(NC(C)=O)cc1Nc1cc(-c2cnn(C(F)F)c2)nc(C(C)(F)F)n1 [Example 375, N-(4-((2-(1,1-difluoroethyl)-6-(1-(difluoromethyl)-1H-pyrazol-4-yl)pyrimidin-4-yl)amino)-5-methoxypyridin-2-yl)acetamide]		100 to 1000	10 to 100
COc1cnc(NC(C)=O)cc1Nc1cc(-c2cnn(C3CC3)c2)nc(C(C)(F)F)n1 [Example 376, N-(4-((6-(1-cyclopropyl-1H-pyrazol-4-yl)-2-(1,1-difluoroethyl)pyrimidin-4-yl)amino)-5-methoxypyridin-2-yl)acetamide]		10 to 100	10 to 100
COc1cnc(NC(C)=O)cc1Nc1cc(-c2cnn(C3COC3)c2)nc(C(C)(F)F)n1 [Example 377, N-(4-((2-(1,1-difluoroethyl)-6-(1-(oxetan-3-yl)-1H-pyrazol-4-yl)pyrimidin-4-yl)amino)-5-methoxypyridin-2-yl)acetamide]		10 to 100	10 to 100
COc1cnc(NC(C)=O)cc1Nc1cc(-c2cnn(CC3CC3)c2)nc(C(C)(F)F)n1 [Example 378, N-(4-((6-(1-(cyclopropylmethyl)-1H-pyrazol-4-yl)-2-(1,1-difluoroethyl)pyrimidin-4-yl)amino)-5-methoxypyridin-2-yl)acetamide]		10 to 100	≤ 10
COc1cnc(NC(C)=O)cc1Nc1cc(-c2cnn(CCN3CCOCC3)c2)nc(C(C)(F)F)n1 [Example 379, N-(4-((2-(1,1-difluoroethyl)-6-(1-(2-morpholinoethyl)-1H-pyrazol-4-yl)pyrimidin-4-yl)amino)-5-methoxypyridin-2-yl)acetamide]		10 to 100	≤ 10
COc1cnc(NC(C)=O)cc1Nc1cc(-c2cnn(CCN(C)C)c2)nc(C(C)(F)F)n1 [Example 380, N-(4-((2-(1,1-difluoroethyl)-6-(1-(2-(dimethylamino)ethyl)-1H-pyrazol-4-yl)pyrimidin-4-yl)amino)-5-methoxypyridin-2-yl)acetamide]		10 to 100	≤ 10
COc1cnc(NC(C)=O)cc1Nc1cc(-c2cnn(CC(F)(F)F)c2)nc(C(C)(F)F)n1 [Example 381, N-(4-((2-(1,1-difluoroethyl)-6-(1-(2,2,2-trifluoroethyl)-1H-pyrazol-4-yl)pyrimidin-4-yl)amino)-5-methoxypyridin-2-yl)acetamide]		10 to 100	≤ 10

SMILES	IC50 [1, 3] [nM]	IC50 [2] [nM]	IC50 [1, 4] [nM]
COc1cnc(NC(C)=O)cc1Nc1cc(-c2ccncc2)nc(C(C)(F)F)n1 [Example 382, N-(4-((2-(1,1-difluoroethyl)-6-(pyridin-4-yl)pyrimidin-4-yl)amino)-5-methoxypyridin-2-yl)acetamide]		10 to 100	10 to 100
COc1cnc(NC(C)=O)cc1Nc1cc(-c2cnn(C(C)C)c2F)nc(C(C)(F)F)n1 [Example 383, N-(4-((2-(1,1-difluoroethyl)-6-(5-fluoro-1-isopropyl-1H-pyrazol-4-yl)pyrimidin-4-yl)amino)-5-methoxypyridin-2-yl)acetamide]		10 to 100	10 to 100
COc1cnc(NC(C)=O)cc1Nc1cc(-c2cn[nH]c2F)nc(C(C)(F)F)n1 [Example 385, N-(4-((2-(1,1-difluoroethyl)-6-(5-fluoro-1H-pyrazol-4-yl)pyrimidin-4-yl)amino)-5-methoxypyridin-2-yl)acetamide]		100 to 1000	10 to 100
COCCn1cc(-c2cc(Nc3cc(NC(C)=O)ncc3OC)nc(C(C)(F)F)n2)cn1 [Example 386, N-(4-((2-(1,1-difluoroethyl)-6-(1-(2-methoxyethyl)-1H-pyrazol-4-yl)pyrimidin-4-yl)amino)-5-methoxypyridin-2-yl)acetamide]		10 to 100	≤ 10
COc1cnc(NC(C)=O)cc1Nc1cc(-c2cccnc2)nc(C(C)(F)F)n1 [Example 388, N-(4-((2-(1,1-difluoroethyl)-6-(pyridin-3-yl)pyrimidin-4-yl)amino)-5-methoxypyridin-2-yl)acetamide]		10 to 100	≤ 10
COc1cnc(NC(C)=O)cc1Nc1cc(-c2cncc(C)c2)nc(C(C)(F)F)n1 [Example 389, N-(4-((2-(1,1-difluoroethyl)-6-(5-methylpyridin-3-yl)pyrimidin-4-yl)amino)-5-methoxypyridin-2-yl)acetamide]		10 to 100	≤ 10
COc1cnc(NC(C)=O)cc1Nc1cc(-c2cnc(N3CCOCC3)nc2)nc(C(C)(F)F)n1 [Example 390, N-(4-((2-(1,1-difluoroethyl)-2′-morpholino-[4,5′-bipyrimidin]-6-yl)amino)-5-methoxypyridin-2-yl)acetamide]		100 to 1000	10 to 100
COc1ccc(-c2cc(Nc3cc(NC(C)=O)ncc3OC)nc(C(C)(F)F)n2)cn1 [Example 391, N-(4-((2-(1,1-difluoroethyl)-6-(6-methoxypyridin-3-yl)pyrimidin-4-yl)amino)-5-methoxypyridin-2-yl)acetamide]		10 to 100	≤ 10
COc1ccc(-c2cc(Nc3cc(NC(C)=O)ncc3OC)nc(C(C)(F)F)n2)cn1 [Example 392, N-(4-((2-(1,1-difluoroethyl)-6-(6-methoxypyridin-3-yl)pyrimidin-4-yl)amino)-5-methoxypyridin-2-yl)acetamide]		≤ 10	≤ 10
COc1cnc(NC(C)=O)cc1Nc1cc(-c2ccc(C#N)cc2)nc(C(C)(F)F)n1 [Example 393, N-(4-((6-(4-cyanophenyl)-2-(1,1-difluoroethyl)pyrimidin-4-yl)amino)-5-methoxypyridin-2-yl)acetamide]		10 to 100	≤ 10
COc1cnc(NC(C)=O)cc1Nc1cc(-c2ccc(F)c(C#N)c2)nc(C(C)(F)F)n1 [Example 394, N-(4-((6-(3-cyano-4-fluorophenyl)-2-(1,1-difluoroethyl)pyrimidin-4-yl)amino)-5-methoxypyridin-2-yl)acetamide]		100 to 1000	≤ 10
COc1cnc(NC(C)=O)cc1Nc1cc(-c2cn(C)nc2C(F)(F)F)nc(C(C)(F)F)n1 [Example 395, N-(4-((2-(1,1-difluoroethyl)-6-(1-methyl-3-(trifluoromethyl)-1H-pyrazol-4-yl)pyrimidin-4-yl)amino)-5-methoxypyridin-2-yl)acetamide]		100 to 1000	≤ 10
COc1cnc(NC(C)=O)cc1Nc1cc(-c2cc(F)c3nc(C)cn3c2)nc(C(C)(F)F)n1 [Example 398, N-(4-((2-(1,1-difluoroethyl)-6-(8-fluoro-2-methylimidazo[1,2-a]pyridin-6-yl)pyrimidin-4-yl)amino)-5-methoxypyridin-2-yl)acetamide]		10 to 100	≤ 10
COc1cnc(NC(C)=O)cc1Nc1cc(-c2ccc3nc(C)cn3n2)nc(C(C)(F)F)n1 [Example 399, N-(4-((2-(1,1-difluoroethyl)-6-(2-methylimidazo[1,2-b]pyridazin-6-yl)pyrimidin-4-yl)amino)-5-methoxypyridin-2-yl)acetamide]		10 to 100	≤ 10
COc1cnc(NC(C)=O)cc1Nc1cc(-c2cc(OC)c3nc(C)cn3c2)nc(C(C)(F)F)n1 [Example 401, N-(4-((2-(1,1-difluoroethyl)-6-(8-methoxy-2-methylimidazo[1,2-a]pyridin-6-yl)pyrimidin-4-yl)amino)-5-methoxypyridin-2-yl)acetamide]		100 to 1000	≤ 10
